Drawing on ChEMBL document CHEMBL1130148, “Synthesis and study of thiocarbonate derivatives of choline as potential inhibitors of acetylcholinesterase” (J Med Chem, 1997), this text covers IC50 and Ki for 15 compounds.

Assay [1] addresses T1, Acetylcholinesterase (Bos taurus, UniProt P23795).
T1 sequence (P23795 whole entry): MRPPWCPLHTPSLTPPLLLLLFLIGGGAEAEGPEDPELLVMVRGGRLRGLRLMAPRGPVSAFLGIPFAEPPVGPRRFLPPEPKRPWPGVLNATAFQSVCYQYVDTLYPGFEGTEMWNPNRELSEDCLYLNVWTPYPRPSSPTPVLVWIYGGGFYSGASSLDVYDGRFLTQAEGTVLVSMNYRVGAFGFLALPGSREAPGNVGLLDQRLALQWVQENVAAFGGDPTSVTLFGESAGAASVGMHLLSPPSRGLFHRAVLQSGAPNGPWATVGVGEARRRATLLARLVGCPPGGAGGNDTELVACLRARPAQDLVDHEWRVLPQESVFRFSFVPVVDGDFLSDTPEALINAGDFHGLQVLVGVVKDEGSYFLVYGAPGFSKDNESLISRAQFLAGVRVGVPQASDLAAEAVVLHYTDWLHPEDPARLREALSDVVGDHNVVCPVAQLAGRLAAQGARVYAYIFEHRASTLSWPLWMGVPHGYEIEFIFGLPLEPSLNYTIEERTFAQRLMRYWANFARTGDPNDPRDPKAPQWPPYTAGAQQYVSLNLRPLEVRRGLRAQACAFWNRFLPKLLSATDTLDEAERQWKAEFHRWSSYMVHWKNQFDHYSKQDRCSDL
As to the kind of experiment: Inhibition of Acetylcholinesterase activity of calf forebrain.

Assay [2] deals with T2, Acetylcholinesterase (Homo sapiens, UniProt P22303). As to the kind of experiment: Inhibition of Acetylcholinesterase from human red blood cells.
T2 sequence (P22303 whole entry): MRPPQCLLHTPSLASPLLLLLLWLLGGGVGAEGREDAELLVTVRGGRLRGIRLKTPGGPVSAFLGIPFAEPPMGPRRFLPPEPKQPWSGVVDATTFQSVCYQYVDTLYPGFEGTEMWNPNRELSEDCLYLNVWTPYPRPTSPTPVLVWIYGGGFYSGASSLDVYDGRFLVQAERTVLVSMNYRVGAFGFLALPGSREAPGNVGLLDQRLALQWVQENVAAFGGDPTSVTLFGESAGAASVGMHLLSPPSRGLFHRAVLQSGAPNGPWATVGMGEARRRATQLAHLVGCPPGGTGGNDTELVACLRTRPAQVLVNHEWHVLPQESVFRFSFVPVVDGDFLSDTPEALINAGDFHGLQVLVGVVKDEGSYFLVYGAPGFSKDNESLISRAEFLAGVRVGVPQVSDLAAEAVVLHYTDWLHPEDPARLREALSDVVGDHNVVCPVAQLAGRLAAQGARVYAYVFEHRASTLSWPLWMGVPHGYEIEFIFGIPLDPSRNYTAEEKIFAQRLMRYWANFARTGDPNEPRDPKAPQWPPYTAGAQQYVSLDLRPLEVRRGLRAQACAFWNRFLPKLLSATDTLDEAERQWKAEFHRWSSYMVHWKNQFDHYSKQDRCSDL
Assay [3] addresses T1, Acetylcholinesterase. Briefly: Binding affinity against Acetylcholinesterase of purified calf forebrain (CFB).
Assay [4] concerns the target T2, Acetylcholinesterase. Briefly: Binding affinity against Acetylcholinesterase of human RBC.
For assay [5], the target named is T1, Acetylcholinesterase. As to the kind of experiment: In vitro inhibition of Acetylcholinesterase activity from calf fore brain was evaluated using 1 mM of ATC as substrate; NI=Not inhibitory.
Assay [6] has as its target T2, Acetylcholinesterase. Briefly: In vitro inhibition of Acetylcholinesterase activity from human red blood cells was evaluated using 1 mM of ATC as substrate; NI=Not inhibitory.

Each structure is given as a SMILES string.

A word on the IC50: it is the concentration needed to halve the response being measured. Lower therefore signals greater potency in that assay. As to `CCC(C)CSC(=O)OCC[N+](C)(C)C.[Cl-]` (stereo not given), the IC50 in assay [1] worked out at 800 µM; in assay [2], 1000 µM.
The matching figures for `CCCCCCSC(=O)OCC[N+](C)(C)C`: 20 µM and 80 µM.
The matching figures for `CCCCSC(=O)OCC[N+](C)(C)C`: 100 µM and 500 µM.
What is called Ki is the equilibrium dissociation constant of an inhibitor or competing ligand from its target. Lower therefore signals tighter binding. In the case of `CCCCCCCSC(=O)OCC[N+](C)(C)C`, the IC50 is 10 µM in assay [1] and 50 µM in assay [2]. Moreover, the Ki in assay [3] is 10 µM; in assay [4] it was 20 µM.
Take `CC(C)(C)SC(=O)OCC[N+](C)(C)C.[Cl-]`: the IC50 result in assay [5] and in assay [6] was “No inhibition” in each case.
For the compound `CCSC(=O)OCC[N+](C)(C)C`, the IC50 in assay [1] and in assay [2] was more than 10000 µM each time.
As for `CCc1ccccc1SC(=O)OCC[N+](C)(C)C.[Cl-]`, the IC50 stood at 10 µM in assay [1] and 50 µM in assay [2].
In the case of `CCCCCSC(=O)OCC[N+](C)(C)C`, the IC50 in assay [1] is 1 µM; in assay [2], 0.8 µM. In assay [3], this compound displayed an inhibition constant (Ki) of 1 µM.
As to `CCC(C)(C)SC(=O)OCC[N+](C)(C)C.[Cl-]`, the values for the IC50 in assay [1] and in assay [2] were 10 µM and 40 µM, respectively.
As for `CCc1ccc(SC(=O)OCC[N+](C)(C)C)cc1`, the IC50 in assay [1] amounted to 100 µM; in assay [2] it was 500 µM.
The corresponding values for `CCCSC(=O)OCC[N+](C)(C)C` are more than 1000 µM and more than 5000 µM.
In the case of `CC(C)SC(=O)OCC[N+](C)(C)C.[Cl-]`, the IC50 result in assay [5] and in assay [6] was “No inhibition” throughout.
As for `C[N+](C)(C)CCOC(=O)Sc1ccccc1.[Cl-]`, the results for the IC50 in assay [1] and in assay [2] were 100 µM and 1000 µM, respectively.
In the case of `CC(C)CCSC(=O)OCC[N+](C)(C)C`, the IC50 was 10 µM in assay [1] and 50 µM in assay [2].
`CCN(CC)CCNC(=O)c1ccc(N)cc1` [PROCAINAMIDE]: the results for the IC50 in assay [1] and in assay [2] were 0.5 µM and 1 µM, respectively. In addition, the Ki in assay [3] and in assay [4] was 1 µM each time.
